The results in this text go back to US5804601A, “Aromatic hydroxamic acid compounds, their production and use” (Takeda Chemical Industries, Ltd., priority 1995, dated 1998).

Molecules are shown by their SMILES.

The assay concerns rat mixed cerebral cell culture. The assay can be described thus: Neutralizing effect on LPS-induced cytotoxicity in a rat mixed cerebral cell culture system (LIC assay), MTT method. The following applies: concentration giving a recovery rate of 50%, usually 4-5 days incubation, read-out: ED50 (the source's name). The assay is classed as cell-based. As for the experimental part: Neutralizing effect on lipopolysaccharide (LPS)--induced cytotoxicity in a rat mixed cerebral cell culture system (LIC assay)
LPS, a substance known to activate glial cells (astrocytes, microglia), was added to a rat mixed cerebral cell culture system and the compounds which would neutralize the cytotoxicity induced by LPS were screened by the following method.
(1) Neonatal rat mixed cerebral cell culture
From neonatal Crj:CD (SD) rats (1-3 days old, Charles-River Japan, Ltd.), the brains were isolated and placed in ice-cold D-MEM/10% FCS (Dulbecco's cell culture minimal essential medium supplemented with 10% of fetal calf serum, 100 units/ml of penicillin and 100 μg/ml of streptomycin). Then, mixed cerebral cell cultures were carried out in the following steps.
1. The cerebrums were separated from the enucleated brains and the meninges was removed under the stereoscopic microscope.
2. The cerebrums were placed in a nylon-mesh (100-200 μm) bag to filter with the aid of a rubber policeman.
3. Using ice-cold D-MEM/10% FCS, the cells were washed 3 times (1000 rpm, 8 min.). Then, this cell suspension was filtered through a cell strainer (40 μm mesh, Falcon 2340) and the number of viable cells was counted by the trypan blue method.
4. The cells, were seeded in wells of a 96-well microtiter plate (Nunc) at a cell density of 1×10^5 cells/100 μl/well, and started a cell culture at 37° C.
5. One week later, 100 μl/well of D-MEM/10% FCS was added.
6. The plate was further incubated for about 1-2 weeks and the neutralizing activity of the test compound was evaluated by the following method.
(2) Evaluation of neutralizing activity in LPS-induced cytotoxicity
1. Following the rat mixed cerebral cell culture described in (1) (after 2-3 weeks of incubation), the medium was discarded from the respective wells of the 96-well microtiter plate, and 50 μl/well of fresh D-MEM/2% FCS was added.
2. A test sample and LPS (Difco, E. coli 011: B4, Bacto) of a suitable concentration, 25 μl each per well, were respectively added. D-MEM/2% FCS was used as the medium.
As the test sample, each of the compounds shown in Table 32 was dissolved in DMSO at a concentration of 10 ^-2 M and the solution was diluted with D-MEM/2% FCS and submitted for assay.
3. After a suitable period (usually 4-5 days) of incubation, the degree of cytotoxic effect was assessed by the microscopic observation, and MTT method.
(3) MTT [3-(4,5-dimethylthiazol-2-yl)-2,5-diphenyltetra zolium bromide] method
Ten μl of MTT solution (5 mg/ml, Sigma) dissolved in phosphate-buffered saline was added to each well. After 4-6 hours of incubation (37° C., under 10% CO2), 100 μl/well of 0.01N-hydrochloric acid containing 10% SDS was added, whereby the formed formazan was dissolved. After complete dissolution, the absorbance (540-590 nm) was measured for each well.
The ED50 values were determined by calculating the recovery rates by means of the following equation and plotting the concentrations of compounds giving a recovery rate of 50% on graph paper.
Recovery rate (%)=(C-B)×100/(A-B)
[A: the absorbance at 550 nm of the control well to which only the medium had been added
B: the absorbance at 550 nm of the well to which LPS had been added
C: the absorbance at 550 nm of the well to which both LPS and the test compound had been added]
On the technique in general: Formazan colour is commonly taken as a measure of viable cells.
With `O=C(CCCCCCc1ccc2ccccc2n1)NO` [Compound 1-3, 7-(2-quinolyl)heptanohydroxamic acid], the EC50 turned out to be 20 nM.

Regarding `O=C(CCCC/C=C\c1ccc2ccccc2n1)NO` [Compound 1-4, (Z)-7-(2-quinolyl)-6-heptenohydroxamic acid], the EC50 was determined as 40 nM.

With `N#CC(CCCCCC(=O)NO)c1cccc2ccccc12` (centres unmarked) [Compound 3-2, 7-Cyano-7-(1-naphthyl)heptanohydroxamic acid], the EC50 amounted to 30 nM.

Take `COc1ccc(C(CCCCC(=O)NOC(C)=O)C2=C(C)C(=O)c3ccccc3C2=O)cc1` (centres unmarked) [Compound 7-1, O-Acetyl-6-(4-methoxyphenyl)-6-(3-methyl-1,4-naphthoquinon-2-yl)hexanohydroxamic acid]: the EC50 is 50 nM.

With `CC(=O)ONC(=O)CCCCCC(C1=C(C)C(=O)C(C)=C(C)C1=O)c1ccccc1` (centres unmarked) [Compound 7-2, O-acetyl-7-(3,5,6-trimethylbenzoquinon-2-yl)-7-phenylheptanohydroxamic acid], the EC50 was 50 nM.

With `CC(=O)ONC(=O)CCCCCCc1ccc2ccccc2c1O` [Compound 7-3, O-acetyl-7-(1-hydroxy-2-naphthyl)heptano-hydroxamic acid], the EC50 came to 400 nM.

Regarding `CC(=O)ONC(=O)CCCCCc1ccc2ccccc2n1` [Compound 7-4, O-acetyl-6-(2-quinolyl)hexanohydroxamic acid], the EC50 is 400 nM.

`CCC(=O)ONC(=O)CCCCCC(C1=C(C)C(=O)C(C)=C(C)C1=O)c1ccccc1` (centres unmarked) [Compound 7-5, O-propionyl-7-(3,5,6-trimethylbenzoquinon-2-yl)-7-phenylheptanohydroxamic acid]: the EC50 came to 50 nM.

Take `CCC(=O)ONC(=O)CCCCC(C1=C(C)C(=O)c2ccccc2C1=O)c1ccc(OC)cc1` (centres unmarked) [Compound 7-6, O-propionyl-6-(4-methoxyphenyl)-6-(3-methyl-1,4-naphthoquinon-2-yl)hexanohydroxamic acid]: the EC50 is 50 nM.

For the compound `CCC(=O)ONC(=O)CCCCCc1ccc2ccccc2n1` [Compound 7-7, O-propionyl-6-(2-quinolyl)hexanohydroxamic acid], the EC50 stood at 500 nM.

For `CCC(=O)ONC(=O)CCCCCC(C#N)c1cccc2ccccc12` (centres unmarked) [Compound 7-8, O-propionyl-7-cyano-7-(1-naphthyl)heptanohydroxamic acid], the EC50 came to 30 nM.

Consider `CC1=C(C)C(=O)C(C(CCCCCC(=O)NOC(=O)CC(C)C)c2ccccc2)=C(C)C1=O` (centres unmarked) [Compound 7-9, O-isovaleryl-7-(3,5,6-trimethylbenzoquinon-2-yl)-7-phenylheptanohydroxamicacid], for which the EC50 turned out to be 200 nM.

On to `COc1ccc(C(CCCCC(=O)NOC(=O)C(C)C)C2=C(C)C(=O)c3ccccc3C2=O)cc1` (centres unmarked) [Compound 7-10, O-isobutyryl-6-(4-methoxyphenyl)-6-(3-methyl-1,4-naphthoquinon-2-yl)hexanohydroxamic acid], for which the EC50 came out at 300 nM.

As to `CC1=C(C)C(=O)C(C(CCCCCC(=O)NOC(=O)C(C)C)c2ccccc2)=C(C)C1=O` (centres unmarked) [Compound 7-11, O-isobutyryl-7-(3,5,6-trimethylbenzoquinon-2-yl)-7-phenylheptanohydroxamicacid], the EC50 amounted to 200 nM.

In the case of `N#CC(CCCCCC(=O)NOC(=O)c1ccccc1)c1cccc2ccccc12` (centres unmarked) [Compound 7-12, O-benzoyl-7-cyano-7-(1-naphthyl)heptano-hydroxamic acid], the EC50 was determined as 30 nM.

`N#CC(CCCCC(=O)NOC(=O)c1ccccc1)c1cccc2ccccc12` (centres unmarked) [Compound 7-13, O-benzoyl-6-cyano-6-(1-naphthyl)hexanohyroxamic acid]: the EC50 worked out at 50 nM.

On to `COc1ccc(C(CCCCC(=O)NOC(=O)c2ccccc2)C2=C(C)C(=O)c3ccccc3C2=O)cc1` (centres unmarked) [Compound 7-14, O-benzoyl-6-(4-me-Ehoxyphenyl)-6-(3-methyl-1,4-naphthoquinon-2-yl)hexanohydroxamic acid], for which the EC50 stood at 200 nM.

For the compound `CC1=C(C)C(=O)C(C(CCCCCC(=O)NOC(=O)c2ccccc2)c2ccccc2)=C(C)C1=O` (centres unmarked) [Compound 7-15, O-benzoyl-7-(3,5,6-trimethylbenzoquinon-2-yl)-7-phenylheptanohydroxamic acid], the EC50 came to 500 nM.

Turning to `O=C(CCCCCc1ccc2ccccc2n1)NOC(=O)c1ccccc1` [Compound 7-16, O-benzoyl-6-(2-quinolyl)hexanohydroxamic acid], the EC50 turned out to be 300 nM.

As to `CC1=C(C)C(=O)C(C(CCCCCC(=O)NOC(=O)C(C)(C)C)c2ccccc2)=C(C)C1=O` (centres unmarked) [Compound 7-17, O-pivaloyl-7-(3,5,6-trimethylbenzoquinon-2-yl)-7-phenylheptanohydroxamic acid], the EC50 is 200 nM.

In the case of `CC1=C(C(CCCCC(=O)NO)c2ccc(F)cc2)C(=O)c2ccccc2C1=O` (centres unmarked) [Compound B, 6-(4-Fluorophenyl)-6-(3-methyl-1,4-naphtho-quinon-2-yl)hexanohydroxamic acid], the EC50 is 500 nM.

As for `CC1=C(C)C(=O)C(C(CCCCCC(=O)NO)c2ccccc2)=C(C)C1=O` (centres unmarked) [Compound C, 7-(3,5,6-Trimethyl-1,4-benzoquinon-2-yl)-7-phenylheptanohydroxamic acid], the EC50 is 300 nM.

`CC1=C(C)C(=O)C(C(CCCCCC(=O)NO)c2ccc(C)cc2)=C(C)C1=O` (centres unmarked) [Compound D, 7-(3,5,6-Trimethyl-1,4-benzoquinon-2-yl)-7-(4-methylphenyl)heptanohydroxamic acid]: the EC50 worked out at 100 nM.

As for `CC1=C(C)C(=O)C(C(CCCCCC(=O)NO)c2ccc(F)cc2)=C(C)C1=O` (centres unmarked) [Compound E, 7-(4-Fluorophenyl)-7-(3,5,6-trimethyl-1,4-benzoquinon-2-yl)heptanohydroxamic acid], the EC50 came to 600 nM.

`O=C(CCCCCC(c1ccccc1)c1ccc2ccccc2c1O)NO` (centres unmarked) [Reference Example 46-1, 7-(1-Hydroxy-2-naphthyl)-7-phenylheptanohydroxamic acid]: the EC50 stood at 50 nM.

For `O=C(CCCCCc1ccc2ccccc2c1O)NO` [Reference Example 46-2, 6-(1-Hydroxy-2-naphthyl)hexanohydroxamic acid], the EC50 worked out at 500 nM.
